In patent US8367726B2, “Acid salt of tolterodine having effective stability for transdermal drug delivery system” (SK Chemicals Co., Ltd., priority 2008, dated 2013):
Counter-ions that a name gives are not always drawn.

Experiments:
[1] = Alkali stability test (1M sodium hydroxide solution, HPLC total related substances); type: physicochemical; details: room temperature, 24 hours, HPLC area ratio of total related substances
Text: (§1) This experiment is designed to confirm the storage stability of the various acid salts of tolterodine.
(§2) For a pharmaceutical drug to be processed into a certain formulation it is essential to be provided with sufficient storage stability. For example, for tablets or capsules, it is necessary for them to have stability in atmospheric condition, for injections, stability in moisture (water), and for patches, both stability in atmospheric condition and in moisture (water).

[2] = Stability test under acid condition (HPLC total impurities); type: physicochemical; details: acid condition (details not described)
Text: as §1, §2

[3] = Stability test under oxidation condition (0.3% hydrogen peroxide solution, HPLC total related substances); type: physicochemical; details: room temperature, 24 hours, HPLC area ratio of total related substances
Text: as §1, §2

[4] = In vitro penetration test, Frantz cell mounted with hairless mouse skin; details: 10 mg/mL in propylene glycol, 32° C.
Description: I mL of tolterodine salt was added onto a Frantz cell, which was mounted with a hairless mouse skin. Then, the amount of tolterodine penetrated through the skin at 32° C. was quantitated and its cumulative amount was measured.

Cc1ccc(O)c(C(CCN(C(C)C)C(C)C)c2ccccc2)c1.O=C(O)c1ccc2ccccc2c1O (stereo not drawn) [tolterodine 1-hydroxy-2-naphtate, tolterodine 1-hydroxy-2-naphthate]
Total impurities, alkali condition [1]: 0.15 % area | Total impurities, acid condition [2]: 0.10 % area | Total impurities, oxidation condition [3]: 0.33 % area

Cc1ccc(O)c([C@H](CCN(C(C)C)C(C)C)c2ccccc2)c1.O=C1CC[C@@H](C(=O)O)N1 [tolterodine L-pyroglutamate, Tolterodine L-Pyroglutamate]
Total impurities, alkali condition [1]: 0.08 % area | Total impurities, acid condition [2]: 0.03 % area | Total impurities, oxidation condition [3]: 0.56 % area

Cc1ccc(O)c([C@H](CCN(C(C)C)C(C)C)c2ccccc2)c1.O=C(O)c1ccccc1 [tolterodine benzoate, Tolterodine Benzoate]
Total impurities, alkali condition [1]: 0.10 % area | Total impurities, acid condition [2]: 0.02 % area | Total impurities, oxidation condition [3]: 0.39 % area

Cc1ccc(O)c([C@H](CCN(C(C)C)C(C)C)c2ccccc2)c1 [tolterodine free base, 2-[(1R)-3-(diisopropylamino)-1-phenylpropyl)-4-methylphenol, reference compound]
Total impurities, alkali condition [1]: 0.83 % area | Total impurities, acid condition [2]: 0.59 % area | Total impurities, oxidation condition [3]: 4.74 % area

Cc1ccc(O)c([C@H](CCN(C(C)C)C(C)C)c2ccccc2)c1.O=C(O)c1cc(O)ccc1O [tolterodine gentisate, Tolterodine Gentisate]
Total impurities, alkali condition [1]: 0.04 % area | Total impurities, acid condition [2]: 0.03 % area | Total impurities, oxidation condition [3]: 0.23 % area

Cc1ccc(O)c([C@H](CCN(C(C)C)C(C)C)c2ccccc2)c1.Cc1ccc(O)c([C@H](CCN(C(C)C)C(C)C)c2ccccc2)c1.O=S(=O)(O)c1cccc2c(S(=O)(=O)O)cccc12 [tolterodine hemi naphthalene-1,5-disulfonate]
Total impurities, alkali condition [1]: 0.11 % area | Total impurities, acid condition [2]: 0.07 % area | Total impurities, oxidation condition [3]: 0.40 % area

Cc1ccc(O)c([C@H](CCN(C(C)C)C(C)C)c2ccccc2)c1.Cc1ccc(O)c([C@H](CCN(C(C)C)C(C)C)c2ccccc2)c1.O=C(O)CCCCC(=O)O [tolterodine hemiadipate, Tolterodine Hemiadipate]
Total impurities, alkali condition [1]: 0.10 % area | Total impurities, acid condition [2]: 0.14 % area | Total impurities, oxidation condition [3]: 0.39 % area

Cc1ccc(O)c([C@H](CCN(C(C)C)C(C)C)c2ccccc2)c1.O=C(O)CNC(=O)c1ccccc1 [tolterodine hippurate, Tolterodine Hippurate]
Total impurities, alkali condition [1]: 0.14 % area | Total impurities, acid condition [2]: 0.11 % area | Total impurities, oxidation condition [3]: 0.41 % area

CC1=C(/C=C/C(C)=C/C=C/C(C)=C/C(=O)O)C(C)(C)CCC1.Cc1ccc(O)c([C@H](CCN(C(C)C)C(C)C)c2ccccc2)c1 [tolterodine retinoate, Tolterodine Retinoate]
Cumulative amount of tolterodine penetrated through the skin ([4]; 0 hr): 0.0 µg | Cumulative amount of tolterodine penetrated through the skin ([4]; 3 hr): 0.5 µg | Cumulative amount of tolterodine penetrated through the skin ([4]; 6 hr): 1.7 µg | Cumulative amount of tolterodine penetrated through the skin ([4]; 9 hr): 2.5 µg | Cumulative amount of tolterodine penetrated through the skin ([4]; 12 hr): 4.1 µg | Total impurities, alkali condition [1]: 0.19 % area | Total impurities, acid condition [2]: 0.15 % area | Total impurities, oxidation condition [3]: 0.08 % area

Cc1ccc(O)c([C@H](CCN(C(C)C)C(C)C)c2ccccc2)c1 [tolterodine tartrate, reference compound]
Total impurities, alkali condition [1]: 0.29 % area | Total impurities, acid condition [2]: 0.20 % area | Total impurities, oxidation condition [3]: 0.98 % area

Tolterodine Benzene Sulfonate [tolterodine benzenesulfonate]
Cumulative amount of tolterodine penetrated through the skin ([4]; 0 hr): 0.0 µg | Cumulative amount of tolterodine penetrated through the skin ([4]; 3 hr): 0.0 µg | Cumulative amount of tolterodine penetrated through the skin ([4]; 6 hr): 0.4 µg | Cumulative amount of tolterodine penetrated through the skin ([4]; 9 hr): 0.8 µg | Cumulative amount of tolterodine penetrated through the skin ([4]; 12 hr): 1.7 µg | Total impurities, alkali condition [1]: 0.08 % area | Total impurities, acid condition [2]: 0.02 % area | Total impurities, oxidation condition [3]: 0.51 % area

Tolterodine Glucolate
Total impurities, alkali condition [1]: 0.23 % area | Total impurities, acid condition [2]: 0.11 % area | Total impurities, oxidation condition [3]: 0.44 % area

Tolterodine Toluene Sulfonate [tolterodine p-toluenesulfonate]
Cumulative amount of tolterodine penetrated through the skin ([4]; 0 hr): 0.0 µg | Cumulative amount of tolterodine penetrated through the skin ([4]; 3 hr): 1.1 µg | Cumulative amount of tolterodine penetrated through the skin ([4]; 6 hr): 8.0 µg | Cumulative amount of tolterodine penetrated through the skin ([4]; 9 hr): 19.9 µg | Cumulative amount of tolterodine penetrated through the skin ([4]; 12 hr): 36.6 µg | Total impurities, alkali condition [1]: 0.06 % area | Total impurities, acid condition [2]: 0.11 % area | Total impurities, oxidation condition [3]: 0.09 % area
